Here are results for 2 molecules from patent US20040097567A1, “Pharmaceutical composition” (priority 2001, published 2004).

For this experiment, the system named is diabetic rats, n0STZ. As to the kind of experiment: Oral glucose tolerance test (OGTT) in n0STZ diabetic rats: plasmatic glycaemia and insulinaemia. The class given is in vivo, rat. The conditions noted are these: for Plasmatic insulin / Plasmatic glucose / Plasmatic glucose AUC / Plasmatic insulin AUC: OGTT glucose 2 g/kg, products given 2 hours before, Compound A 12.5 mg/kg, glibenclamide 2 mg/kg; for Plasmatic glucose AUC / Plasmatic insulin AUC: AUC over 0-120 min; for effect on carbohydrate tolerance: acute administration, 12.5 mg/kg compound A or 2 mg/kg glibenclamide. As to the method:
Diabetes is induced in male rats (source: Iffa Credo) by intravenous administration of streptozotocin on the day of birth.
The rats are selected according to the criterion of hyperglycaemia 170±15 mg/dl.
The animals are grouped into 5 rats per batch and divided into 4 batches
The products are administered 2 hours before the glucose tolerance test, at a rate of 12.5 mg/kg for 4-[2-(2,4-dioxothiazolidin-5-yl)ethoxy]benzonitrile, 2 mg/kg for glibenclamide and the combination of the 2 products at the doses used in monotherapy.
The glucose tolerance test (OGTT) is performed on the conscious animal and consists in administering glucose at a rate of 2 g/kg. The plasmatic glucose clearance is analysed after this glucose load, over 2 hours (0-10-20-30-45-60-90 and 120 min).
In addition to plasmatic glycaemia, insulinaemia is also determined.

Regarding `COc1ccc(Cl)cc1C(=O)NCCc1ccc(S(=O)(=O)NC(=O)NC2CCCCC2)cc1` [Glibenclamide], the “Plasmatic glucose AUC” value is 55027.5 and the “Plasmatic insulin AUC” value is on record as 11930.75. Also, the Plasmatic insulin (0 min) was found to be 84.2 μU/ml. Besides, where the note is “0 min, 5 rats/batch”, the Plasmatic glucose turned out to be 138 mg/dL. Moreover, for the setting “10 min”, the Plasmatic glucose turned out to be 312 mg/dL and the Plasmatic insulin was 116.9 μU/ml. For the same molecule, for the setting “20 min”, the Plasmatic glucose amounted to 407 mg/dL and the Plasmatic insulin was determined as 129.4 μU/ml. In addition, for the setting “30 min”, the Plasmatic glucose came to 470 mg/dL and the Plasmatic insulin came out at 105.8 μU/ml. For the setting “45 min”, the Plasmatic glucose is 520 mg/dL and the Plasmatic insulin is 100 μU/ml. Under “60 min”, the Plasmatic glucose came out at 513 mg/dL and the Plasmatic insulin came to 88.3 μU/ml. For the same molecule, for the setting “90 min”, the Plasmatic glucose turned out to be 507 mg/dL and the Plasmatic insulin is 92.5 μU/ml. Where the note is “120 min”, the Plasmatic glucose stood at 448 mg/dL and the Plasmatic insulin worked out at 97.5 μU/ml. The “increase observed (carbohydrate tolerance, glucose curve vs control)” value (acute 2 mg/kg, n0STZ rats, OGTT) was determined as 6%. Also, the “effect on carbohydrate tolerance” value (n0STZ rats, OGTT) is recorded as “little or no effect”.

With `N#Cc1ccc(OCCC2SC(=O)NC2=O)cc1` (stereo not shown) [Compound A, 4-[2-(2,4-dioxothiazolidin-5-yl)ethoxy]benzonitrile], the “Plasmatic glucose AUC” value came to 47702.5 and the “Plasmatic insulin AUC” value worked out at 10384.25. Moreover, under “0 min”, the Plasmatic insulin is 47.2 μU/ml. The Plasmatic glucose (0 min, 5 rats/batch) came out at 160 mg/dL. Also, where the note is “10 min”, the Plasmatic glucose came to 321 mg/dL and the Plasmatic insulin is listed as 100.8 μU/ml. Further, under “20 min”, the Plasmatic glucose was 381 mg/dL and the Plasmatic insulin is 89.6 μU/ml. In addition, where the note is “30 min”, the Plasmatic glucose worked out at 418 mg/dL and the Plasmatic insulin came out at 84.5 μU/ml. Moreover, for the setting “45 min”, the Plasmatic glucose amounted to 424 mg/dL and the Plasmatic insulin was determined as 74.6 μU/ml. Moreover, where the note is “60 min”, the Plasmatic glucose came to 447 mg/dL and the Plasmatic insulin is on record as 77 μU/ml. Also, under “90 min”, the Plasmatic glucose is 419 mg/dL and the Plasmatic insulin was determined as 93.8 μU/ml. For the same molecule, under “120 min”, the Plasmatic glucose is 378 mg/dL and the Plasmatic insulin was 101.5 μU/ml. For the same molecule, the “decrease observed (carbohydrate tolerance, glucose curve vs control)” value (acute 12.5 mg/kg, n0STZ rats, OGTT) is listed as 6%. Moreover, the “effect on carbohydrate tolerance” value (n0STZ rats, OGTT) was “little or no effect”.
